Test results from patent US20230157996A1, “SMALL-MOLECULE INHIBITOR TARGETING EB VIRUS NUCLEAR ANTIGEN PROTEIN, PREPARATION METHOD AND USE THEREOF” (priority 2020, published 2023).

What follows are compounds tested on C666-1 cells (assay: C666-1 cell viability single concentration (50 μM) inhibition rate (Resazurin)). Conditions: 50 μM compound, 72 hours, C666-1 cells.
Type: cell-based
Outline: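 Resazurin fluorescence (560/590 nm, 3 h development) gave the proliferation inhibition rate, normalised to DMSO-treated and cell-free blank wells. Compound was tested at a single 50 μmol/L final concentration on C666-1 cells for 72 h at 37° C, with duplicate wells, after 24 h seeding.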

| Structure (SMILES) | C666-1 cell viability single concentration (50 μM) inhibition rate, Ratio* (Inh %) |
| --- | --- |
| COC(=O)c1cccc(C#CN(Cc2ccc(F)cc2)S(=O)(=O)c2ccc(C)cc2)c1-n1cccc1 [Example 344] | + (*Inh %: <10% +) |

Same assay, conditions: Homo sapiens, C6661, 72 h, 50 μM compound, 72 hours, C666-1 cells; read-out: C666-1 cell viability single concentration (50 μM) inhibition rate, Ratio* (Inh %)

| Structure (SMILES) | inhibition at 50 µM |
| --- | --- |
| COC(=O)c1cccc(C#CN(Cc2ccc(C(F)(F)F)cc2)S(=O)(=O)c2cccs2)c1-n1cccc1 [Example 336, Methyl 3-((N-(4-(trifluoromethyl)benzyl)thiophen-2-sulfonamido)ethynyl)-2-(1H-pyrrol-1-yl)benzoate] | < 10% |
| COC(=O)c1cccc(C#CN(Cc2ccc3c(ccn3C)c2)S(=O)(=O)c2ccc3occc3c2)c1-n1cccc1 [Example 338, Methyl 3-((N-((1-methyl-1H-indol-5-yl)methyl)benzofuran-5-sulfonamido)ethynyl)-2-(1H-pyrrol-1-yl)benzoate] | < 10% |
| COC(=O)c1cccc(C#CN(Cc2ccccc2)S(=O)(=O)c2ccccc2)c1-n1cccc1 [Example 340, Methyl 3-((N-benzyl-N-phenylsulfonamido)ethynyl)-2-(1H-pyrrol-1-yl)benzoate] | < 10% |
| COC(=O)c1cccc(C#CN(Cc2ccc(C)cc2)S(=O)(=O)c2ccc(C)cc2)c1-n1cccc1 [Example 342] | < 10% |
| COC(=O)c1cccc(C#CN(Cc2ccc(C(F)(F)F)cc2)S(=O)(=O)c2ccc(C)cc2)c1-n1cccc1 [Example 346] | 10 to 30% |
| COC(=O)c1cccc(N2CC(Sc3ccc(C(C)C)cc3)C2)c1-n1cccc1 [Example 348, Methyl 3-(3-((4-isopropylphenyl)thio)azetidin-1-yl)-2-(1H-pyrrol-1-yl)benzoate] | < 10% |
| COC(=O)c1cccc(N2CC(Sc3ccc(Cl)cc3)C2)c1-n1cccc1 [Example 349, Methyl 3-(3-((4-chlorophenyl)thio)azetidin-1-yl)-2-(1H-pyrrol-1-yl)benzoate] | < 10% |
| COC(=O)c1cccc(N2CC(SC3CCCCC3)C2)c1-n1cccc1 [Example 350, Methyl 3-(3-(cyclohexylthio)azetidin-1-yl)-2-(1H-pyrrol-1-yl)benzoate] | < 10% |
| COC(=O)c1cccc(N2CC(Sc3ccccc3)C2)c1-n1cccc1 [Example 351, Methyl 3-(3-(phenylthio)azetidin-1-yl)-2-(1H-pyrrol-1-yl)benzoate] | < 10% |
| COC(=O)c1cccc(N2CC(Sc3ccc(CO)cc3)C2)c1-n1cccc1 [Example 352, Methyl 3-(3-((4-(hydroxymethyl)phenyl)thio)azetidin-1-yl)-2-(1H-pyrrol-1-yl)benzoate] | > 50% |
| COC(=O)c1cccc(N2CC(S(=O)(=O)c3ccc(C(C)C)cc3)C2)c1-n1cccc1 [Example 353, Methyl 3-(3-((4-isopropylphenyl)sulfonyl)azetidin-1-yl)-2-(1H-pyrrol-1-yl)benzoate] | 10 to 30% |
| COC(=O)c1cccc(N2CC(S(=O)(=O)c3ccc(Cl)cc3)C2)c1-n1cccc1 [Example 354, Methyl 3-(3-((4-chlorophenyl)sulfonyl)azetidin-1-yl)-2-(1H-pyrrol-1-yl)benzoate] | 10 to 30% |
| COC(=O)c1cccc(N2CC(S(=O)(=O)C3CCCCC3)C2)c1-n1cccc1 [Example 355, Methyl 3-(3-(cyclohexylsulfonyl)azetidin-1-yl)-2-(1H-pyrrol-1-yl)benzoate] | 10 to 30% |
| COC(=O)c1cccc(N2CC(S(=O)(=O)c3ccccc3)C2)c1-n1cccc1 [Example 356, Methyl 3-(3-(phenylsulfonyl)azetidin-1-yl)-2-(1H-pyrrol-1-yl)benzoate] | < 10% |
| COC(=O)c1cccc(N2CC(S(=O)(=O)c3ccc(CO)cc3)C2)c1-n1cccc1 [Example 357, Methyl 3-(3-((4-(hydroxymethyl)phenyl)sulfonyl)azetidin-1-yl)-2-(1H-pyrrol-1-yl)benzoate] | < 10% |
| COC(=O)c1cccc(N2CC(Oc3ccc(COc4cncc(F)c4)cc3)C2)c1-n1cccc1 [Example 358, Methyl 3-(3-(4-(((5-fluoropyridin-3-yl)oxy)methyl)phenoxy)azetidin-1-yl)-2-(1H-pyrrol-1-yl)benzoate] | 10 to 30% |
| O=C(O)c1cccc(N2CC(Oc3ccc(COc4cncc(F)c4)cc3)C2)c1-n1cccc1 [Example 359, 3-(3-(4-(((5-fluoropyridin-3-yl)oxy)methyl)phenoxy)azetidin-1-yl)-2-(1H-pyrrol-1-yl)benzoic acid] | < 10% |
| COC(=O)c1cccc(N2CC(Oc3ccc(COc4cncnc4)cc3)C2)c1-n1cccc1 [Example 360, Methyl 3-(3-(4-((pyrimidin-5-yl-oxy)methyl)phenoxy)azetidin-1-yl)-2-(1H-pyrrol-1-yl)benzoate] | < 10% |
| O=C(O)c1cccc(N2CC(Oc3ccc(COc4cncnc4)cc3)C2)c1-n1cccc1 [Example 361, 3-(3-(4-((pyrimidin-5-yl-oxy)methyl)phenoxy)azetidin-1-yl)-2-(1H-pyrrol-1-yl)benzoic acid] | < 10% |

| Structure (SMILES) | inhibition at 50 µM |
| --- | --- |
| COC(=O)c1cccc(N2CC(Oc3ccc(CNc4ccccc4)cc3)C2)c1-n1cccc1 [Example 362] | < 10% |
| O=C(O)c1cccc(N2CC(Oc3ccc(CNc4ccccc4)cc3)C2)c1-n1cccc1 [Example 363] | < 10% |
| COC(=O)c1cccc(N2CC(Oc3ccc(CNCc4ccccc4)cc3)C2)c1-n1cccc1 [Example 364] | < 10% |
| O=C(O)c1cccc(N2CC(Oc3ccc(CNCc4ccccc4)cc3)C2)c1-n1cccc1 [Example 365] | < 10% |
| COCCOCc1ccc(OC2CN(c3cccc(C(=O)OC)c3-n3cccc3)C2)cc1OCCOC [Example 366, Methyl 3-(3-(3-(2-methoxyethoxy)-4-((2-methoxyethoxy)methyl)phenoxy)azetidin-1-yl)-2-(1H-pyrrol-1-yl)benzoate] | 10 to 30% |
| COCCOCc1ccc(OC2CN(c3cccc(C(=O)O)c3-n3cccc3)C2)cc1OCCOC [Example 367, 3-(3-(3-(2-methoxyethoxy)-4-((2-methoxyethoxy)methyl)phenoxy)azetidin-1-yl)-2-(1H-pyrrol-1-yl)benzoic acid] | < 10% |
| N#CCCNC(=O)c1cccc(N2CC(Oc3ccc(CO)cc3)C2)c1-n1cccc1 [Example 368, N-(2-cyanoethyl)-3-(3-(4-(hydroxymethyl)phenoxy)azetidin-1-yl)-2-(1H-pyrrol-1-yl)benzamide] | 10 to 30% |
| CS(=O)(=O)NC(=O)c1cccc(N2CC(Oc3ccc(CO)cc3)C2)c1-n1cccc1 [Example 369, N-methylsulfonyl-(3-(3-(4-(hydroxymethyl)phenoxy)azetidin-1-yl)-2-(1H-pyrrol-1-yl))benzamide] | < 10% |
| COCCOCc1ccc(OC2CN(c3cccc(C(=O)OC)c3-n3cccc3)C2)cc1 [Example 370] | 10 to 30% |
| COCCOCc1ccc(OC2CN(c3cccc(C(=O)O)c3-n3cccc3)C2)cc1 [Example 371] | 10 to 30% |
| COC(=O)c1cccc(N2CC(Oc3ccc(COCCO)cc3)C2)c1-n1cccc1 [Example 372] | 10 to 30% |
| O=C(O)c1cccc(N2CC(Oc3ccc(COCCO)cc3)C2)c1-n1cccc1 [Example 373] | < 10% |
| COC(=O)c1cccc(N2CC(Oc3ccc(COCCNC(C)=O)cc3)C2)c1-n1cccc1 [Example 374] | 10 to 30% |
| COC(=O)c1cccc(N2CC(Oc3ccc(COC4CCOC4)cc3)C2)c1-n1cccc1 (stereo not drawn) [Example 375] | < 10% |
| O=C(O)c1cccc(N2CC(Oc3ccc(COC4CCOC4)cc3)C2)c1-n1cccc1 (stereo not drawn) [Example 376] | 10 to 30% |
| COC(=O)c1cccc(N2CC(Oc3ccc(COC4COC4)cc3)C2)c1-n1cccc1 [Example 377, Methyl 3-(3-(4-((oxetanyl-3-oxy)methyl)phenoxy)azetidin-1-yl)-2-(1H-pyrrol-1-yl)benzoate] | > 50% |
| COC(=O)c1cccc(N2CC(Oc3ccc(COC4CCN(C(C)=O)CC4)cc3)C2)c1-n1cccc1 [Example 378] | < 10% |
| O=C(O)c1cccc(C#CN2Cc3ccccc3S2(=O)=O)c1-n1cccc1 [Example 379] | > 50% |
| Cc1ccc(S(=O)(=O)N(C#Cc2cccc(C(=O)O)c2-n2cccc2)Cc2ccccc2)cc1 [Example 380, 3-(((N-benzyl-4-methylphenyl)sulfonamido)ethynyl)-2-(1H-pyrrol-1-yl)benzoic acid] | < 10% |

Same assay, conditions: Homo sapiens, C6661, 72 h, read-out: C666-1 cell viability single concentration (50 μM) inhibition rate, Ratio* (Inh %)

| Structure (SMILES) | inhibition at 50 µM |
| --- | --- |
| Cn1ccc2cc(CN(C#Cc3cccc(C(=O)O)c3-n3cccc3)S(=O)(=O)c3csc4ccccc34)ccc21 [Example 335, Lithium 3-((N-((1-methyl-1H-indol-5-yl)methyl)benzo[b]thiophen-3-sulfonamido)ethynyl)-2-(1H-pyrrol-1-yl)benzoate] | < 10% |
| O=C(O)c1cccc(C#CN(Cc2ccc(C(F)(F)F)cc2)S(=O)(=O)c2cccs2)c1-n1cccc1 [Example 337, Lithium 3-((N-(4-(trifluoromethyl)benzyl)thiophen-2-sulfonamido)ethynyl)-2-(1H-pyrrol-1-yl)benzoate] | 10 to 30% |
| Cn1ccc2cc(CN(C#Cc3cccc(C(=O)O)c3-n3cccc3)S(=O)(=O)c3ccc4occc4c3)ccc21 [Example 339, Lithium 3-((N-((1-methyl-1H-indol-5-yl)methyl)benzofuran-5-sulfonamido)ethynyl)-2-(1H-pyrrol-1-yl)benzoate] | < 10% |
| O=C(O)c1cccc(C#CN(Cc2ccccc2)S(=O)(=O)c2ccccc2)c1-n1cccc1 [Example 341, 3-((N-benzyl-N-phenylsulfonamido)ethynyl)-2-(1H-pyrrol-1-yl)benzoic acid] | < 10% |
| Cc1ccc(CN(C#Cc2cccc(C(=O)O)c2-n2cccc2)S(=O)(=O)c2ccc(C)cc2)cc1 [Example 343] | < 10% |
| Cc1ccc(S(=O)(=O)N(C#Cc2cccc(C(=O)O)c2-n2cccc2)Cc2ccc(C(F)(F)F)cc2)cc1 [Example 347] | 30 to 50% |
